In ChEMBL document CHEMBL1125852, “Synthesis of 4-Amino-1-(-D-ribofuranosyl)pyrrolo[2,3-d]pyridazine; an entry into a novel series of adenosine analogs” (1991):
The source made the active and inactive calls. The calls are words filed in the database; no cut-off is given here.

What was measured:
Human betaherpesvirus 5 [1] = assay: Compound was tested for cytotoxicity against human cytomegalo virus at 100 uM; NA - no activity; assay type: functional, organism-based
Human betaherpesvirus 5 [2] = assay: Compound was tested for complete inhibition of growth rate against human cytomegalo virus; assay type: functional

Question: Which results are given for `Nc1nncc2c1ccn2C1O[C@H](CO)[C@@H](O)[C@H]1O` (some centres not stated)?
Answer: Activity (Human betaherpesvirus 5 [1]): inactive; Inhibition (Human betaherpesvirus 5 [2]): 0.043 µM
